Molecular target: mTOR/GbL/Raptor (mTORC1) (Homo sapiens, UniProt P42345)
Experiment: mTOR/GbL/Raptor (mTORC1) ELISA assay
Assay type: biochemical
Settings: phosphorylation of 4E-BP1; 0.2 nM mTORC1, 10 μM ATP; read-out: IC50 in this assay (mTORC1 ELISA)
Method in brief: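 ELISA read-out: phospho-4E-BP1 captured on Ni-chelate plates and detected with anti-phospho antibody plus HRP-anti-IgG luminescence. The kinase step ran 120 min at ambient temperature with 0.2 nM human mTORC1, 10 µM ATP, 50 nM His-4E-BP1, 10 mM MnCl2, pH 7.2 HEPES.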

SMILES	IC50
Cc1nc2ncc(-c3ccc4c(c3)CN(c3nc(CN(C)C)nc5c3CC(C)(C)CC5)CCO4)cc2[nH]1 [Example 353, 1-{6,6-dimethyl-4-[7-(2-methyl-1H-imidazo[4,5-b]pyridin-6-yl)-2,3-dihydro-1,4-benzoxazepin-4(5H)-yl]-5,6,7,8-tetrahydroquinazolin-2-yl}-N,N-dimethylmethanamine]	≤ 10 nM
Cc1nc2ncc(-c3ccc4c(c3)CN(c3ncncc3C)CCO4)cc2[nH]1 [Example 169, 7-(2-methyl-1H-imidazo[4,5-b]pyridin-6-yl)-4-(5-methylpyrimidin-4-yl)-2,3,4,5-tetrahydro-1,4-benzoxazepine]	250 to 1000 nM
CC1(C)CCc2ncnc(N3CCOc4ccc(-c5cnc(N)c(S(=O)(=O)N6CC(O)C6)c5)cc4C3)c2C1 [Example 315, 1-({2-amino-5-[4-(6,6-dimethyl-5,6,7,8-tetrahydroquinazolin-4-yl)-2,3,4,5-tetrahydro-1,4-benzoxazepin-7-yl]pyridin-3-yl}sulfonyl)azetidin-3-ol]	10 to 50 nM
CC1(C)C=Cc2ncnc(N3CCOc4ccc(-c5ccc(-c6ncc[nH]6)cc5)cc4C3)c2C1 [Example 479, 4-(6,6-dimethyl-5,6-dihydroquinazolin-4-yl)-7-[4-(1H-imidazo-2-yl)phenyl]-2,3,4,5-tetrahydro-1,4-benzoxazepine]	≤ 10 nM
CCNc1nc2ccc(-c3ccc4c(c3)CN(c3nc(C)nc5cc(F)ccc35)CCO4)cc2[nH]1 [Example 295, N-ethyl-6-[4-(7-fluoro-2-methylquinazolin-4-yl)-2,3,4,5-tetrahydro-1,4-benzoxazepin-7-yl]-1H-benzimidazol-2-amine]	50 to 250 nM
c1ccc2c(N3CCOc4ccc(-c5ccc6scnc6c5)cc4C3)ccnc2c1 [Example 129, 7-(1,3-benzothiazol-5-yl)-4-quinolin-4-yl-2,3,4,5-tetrahydro-1,4-benzoxazepine]	250 to 1000 nM
Cc1nc2ncc(-c3ccc4c(c3)CN(c3ncnc5c3CC(C)CC5)CCO4)cc2[nH]1 (stereo not drawn) [Example 555, 7-(2-methyl-1H-imidazo[4,5-b]pyridin-6-yl)-4-(6-methyl-5,6,7,8-tetrahydroquinazolin-4-yl)-2,3,4,5-tetrahydro-1,4-benzoxazepine]	≤ 10 nM
c1ccc2c(N3CCOc4ccc(-c5ccc6nc(C7CC7)[nH]c6c5)cc4C3)ccnc2c1 [Example 199, 7-(2-cyclopropyl-1H-benzimidazol-6-yl)-4-quinolin-4-yl-2,3,4,5-tetrahydro-1,4-benzoxazepine]	250 to 1000 nM
Cc1nc2ccc(-c3ccc4c(c3)CN(c3ncnc5c3CC(C)(C)CC5)CCO4)cc2[nH]1 [Example 65, 4-(6,6-dimethyl-5,6,7,8-tetrahydroquinazolin-4-yl)-7-(2-methyl-1H-benzimidazol-6-yl)-2,3,4,5-tetrahydro-1,4-benzoxazepine]	≤ 10 nM
CCc1c(C)nc(CN(C)C)nc1N1CCOc2ccc(-c3ccc4[nH]c(C)nc4c3)cc2C1 [Example 349, 1-{5-ethyl-4-methyl-6-[7-(2-methyl-1H-benzimidazol-5-yl)-2,3-dihydro-1,4-benzoxazepin-4(5H)-yl]pyrimidin-2-yl}-N,N-dimethylmethanamine]	250 to 1000 nM
COc1ccc2c(N3CCOc4ccc(-c5cnc(N)c([S+]([O-])C[C@@H](C)CO)c5)cc4C3)ncnc2c1 (stereo partly drawn) [Example 302, (2S)-3-[(2-amino-5-{4-[7-(methyloxy)quinazolin-4-yl]-2,3,4,5-tetrahydro-1,4-benzoxazolin-7-yl}pyridin-3-yl)sulfinyl]-2-methylpropan-1-ol]	250 to 1000 nM
CC1(C)CCc2ncnc(N3CCOc4ccc(-c5cnc(N)c(S(=O)(=O)NCCCN)c5)cc4C3)c2C1 [Example 414, 2-amino-N-(3-aminopropyl)-5-[4-(6,6-dimethyl-5,6,7,8-tetrahydroquinazolin-4-yl)-2,3,4,5-tetrahydro-1,4-benzoxazepin-7-yl]pyridine-3-sulfonamide]	10 to 50 nM
Cc1ncnc(N2CCOc3ccc(-c4ccc(-c5ncc[nH]5)cc4)cc3C2)c1Cc1ccc(F)cc1 [Example 131, 4-{5-[(4-fluorophenyl)methyl]-6-methylpyrimidin-4-yl}-7-[4-(1H-imidazol-2-yl)phenyl]-2,3,4,5-tetrahydro-1,4-benzoxazepine]	≤ 10 nM
Cc1nc2ccc(-c3ccc4c(c3)CN(c3ncnc5c3CCN(Cc3ccccc3)C5)CCO4)cc2[nH]1 [Example 60, 7-(2-methyl-1H-benzimidazol-6-yl)-4-[7-(phenylmethyl)-5,6,7,8-tetrahydropyrido[3,4-d]pyrimidin-4-yl]-2,3,4,5-tetrahydro-1,4-benzoxazepine]	50 to 250 nM
CCC1CCc2ncnc(N3CCOc4ccc(-c5cnc6nc(N)[nH]c6c5)cc4C3)c2C1 (stereo not drawn) [Example 178, 6-[4-(6-ethyl-5,6,7,8-tetrahydroquinazolin-4-yl)-2,3,4,5-tetrahydro-1,4-benzoxazepin-7-yl]-1H-imidazo[4,5-b]pyridin-2-amine]	≤ 10 nM
Cc1nc2ccc(-c3ccc4c(c3)CN(c3nc(CN5CC[C@H](F)C5)nc5c3CC(C)(C)CC5)CCO4)cc2[nH]1 [Example 463, 4-(2-{[(3S)-3-fluoropyrrolidin-1-yl]methyl}-6,6-dimethyl-5,6,7,8-tetrahydroquinazolin-4-yl)-7-(2-methyl-1H-benzimidazol-6-yl)-2,3,4,5-tetrahydro-1,4-benzoxazepine]	50 to 250 nM
CCNc1nc2ccc(-c3ccc4c(c3)CN(c3nc(CC)nc5cc(OC)ccc35)CCO4)cc2[nH]1 [Example 279, N-ethyl-6-{4-[2-ethyl-7-(methyloxy)quinazolin-4-yl]-2,3,4,5-tetrahydro-1,4-benzoxazepin-7-yl}-1H-benzimidazol-2-amine]	250 to 1000 nM
Cc1nc(CN(C)C)nc(N2CCOc3ccc(-c4ccc5[nH]c(CF)nc5c4)cc3C2)c1Cc1ccc(F)cc1 [Example 321]	≤ 10 nM
COCCNCc1nc2c(c(N3CCOc4ccc(-c5ccc6nc(C)[nH]c6c5)cc4C3)n1)CC(C)(C)CC2 [Example 585, N-({6,6-dimethyl-4-[7-(2-methyl-1H-benzimidazol-6-yl)-2,3-dihydro-1,4-benzoxazepin-4(5H)-yl]-5,6,7,8-tetrahydroquinazolin-2-yl}methyl)-2-(methyloxy)ethanamine]	10 to 50 nM
Cc1nc2ncc(-c3ccc4c(c3)CN(c3ncnc(C)c3Br)CCO4)cc2[nH]1 [Example 468, 4-(5-bromo-6-methylpyrimidin-4-yl)-7-(2-methyl-1H-imidazao[4,5-b]pyridin-6-yl)-2,3,4,5-tetrahydro-1,4-benzoxazepine]	50 to 250 nM
CCNc1nc2ccc(-c3ccc4c(c3)CN(c3nc(CC)nc5ccccc35)CCO4)cc2[nH]1 [Example 260, N-ethyl-6-[4-(2-ethylquinazolin-4-yl)-2,3,4,5-tetrahydro-1,4-benzoxazepin-7-yl]-1H-benzimidazol-2-amine]	50 to 250 nM
Cc1nc2ccc(-c3ccc4c(c3)CN(c3ccnc(N)n3)CCO4)cc2[nH]1 [Example 96, 4-[7-(2-methyl-1H-benzimidazol-6-yl)-2,3-dihydro-1,4-benzoxazepin-4(5H)-yl]pyrimidin-2-amine]	250 to 1000 nM
CN(C)c1ncc(-c2ccc3c(c2)CN(c2ncnc4c2CC(C)(C)CC4)CCO3)cc1NS(C)(=O)=O [Example 619, N-{2-(dimethylamino)-5-[4-(6,6-dimethyl-5,6,7,8-tetrahydroquinazolin-4-yl)-2,3,4,5-tetrahydro-1,4-benzoxazepin-7-yl]pyridin-3-yl}methanesulfonamide]	10 to 50 nM
CCc1ncnc(N2CCOc3ccc(-c4ccc5nc(C)[nH]c5c4)cc3C2)c1Cc1ccccc1 [Example 70, 4-[6-ethyl-5-(phenylmethyl)pyrimidin-4-yl]-7-(2-methyl-1H-benzimidazol-6-yl)-2,3,4,5-tetrahydro-1,4-benzoxazepine]	≤ 10 nM
CCNc1nc2ncc(-c3ccc4c(c3)CN(c3ncnc5c3CC(C)(C)CC5)CCO4)cc2[nH]1 [Example 264, 6-[4-(6,6-dimethyl-5,6,7,8-tetrahydroquinbazolin-4-yl)-2,3,4,5-tetrahydro-1,4-benzoxazepin-7-yl]-N-ethyl-1H-imidazo[4,5-b]pyridin-2-amine]	≤ 10 nM
Nc1nc2ncc(-c3ccc4c(c3)CN(c3ncnc5ccc(I)cc35)CCO4)cc2[nH]1 [Example 183, 6-[4-(6-iodoquinazolin-4-yl)-2,3,4,5-tetrahydro-1,4-benzoxazepin-7-yl]-1H-imidazo[4,5-b]pyridin-2-amine]	≤ 10 nM
CC(=O)OCc1nc(C)c(C(C)C)c(N2CCOc3ccc(-c4ccc5nc(C)[nH]c5c4)cc3C2)n1 [Example 686, {4-methyl-6-[7-(2-methyl-1H-benzimidazol-5-yl)-2,3-dihydro-1,4-benzoxazepin-4(5H)-yl]-5-(1-methylethyl)pyrimidin-2-yl}methyl acetate]	10 to 50 nM
CC1=CC(C)(C)Cc2c1ncnc2N1CCOc2ccc(-c3cnc(N)c(S(=O)(=O)N[C@@H]4CCN(C)C4)c3)cc2C1 [Example 422, 2-amino-N-[(3R)-1-methylpyrrolidin-3-yl]-5-[4-(6,6,8-trimethyl-5,6-dihydroquinazolin-4-yl)-2,3,4,5-tetrahydro-1,4-benzoxazepin-7-yl]pyridine-3-sulfonamide]	50 to 250 nM
Cc1nc2ncc(-c3ccc4c(c3)CN(c3ncnc5c3CCC(CO)C5)CCO4)cc2[nH]1 (stereo not drawn) [Example 309, {4-[7-(2-methyl-1H-imidazo[4,5-b]pyridin-6-yl)-2,3-dihydro-1,4-benzoxazepin-4(5H)-yl]-5,6,7,8-tetrahydroquinazolin-7-yl}methanol]	50 to 250 nM
CC1(C)CCc2ncnc(N3CCOc4ccc(-c5cnc(N)c(S(=O)(=O)CC(O)CO)c5)cc4C3)c2C1 (stereo not drawn) [Example 431, 3-({2-amino-5-[4-(6,6-dimethyl-5,6,7,8-tetrahydroquinazolin-4-yl)-2,3,4,5-tetrahydro-1,4-benzoxazepin-7-yl]pyridin-3-yl}sulfonyl)propane-1,2-diol]	10 to 50 nM

— patent publication US8648066B2 (Exelixis, Inc., priority 2009, dated 2014)
